Drawing on US5043450A, “8-alkoxyquinolonecarboxylic acid and salts thereof” (priority 1986, dated 1991), this text covers MIC for one compound.

Values after ≈ are worked out from the molar mass of the structure shown.

Holding throughout (test): Antibacterial spectra, MIC
Common to all, as to assay type: cell-based

Assay [1] has as its system P. mirabilis IID 994. To be noted: Proteus mirabilis, IID994; 10^6 cells/ml; Gram -; read-out: MIC.
Assay [2] has as its system F. varium KYA 8501. As to conditions: Fusobacterium varium, KYA8501; 10^6 cells/ml; Gram -; read-out: MIC.
The subject of assay [3] is B. distasonis 8503. To be noted: Parabacteroides distasonis, 10^6 cells/ml, Gram -, read-out: MIC.
The test system of assay [4] is Enterobacter cloacae IID 977. To be noted: IID977, 10^6 cells/ml, Gram -, read-out: MIC.
Assay [5] concerns P. maltophilia GIFU 2491. To be noted: Stenotrophomonas maltophilia, GIFU2491; 10^6 cells/ml; Gram -; read-out: MIC.
The subject of assay [6] is Yersinia enterocolitica IID 981. As to conditions: IID981, 10^6 cells/ml, Gram -, read-out: MIC.
The test system of assay [7] is Klebsiella pneumoniae KY(GN)6445.
The test system of assay [8] is Bacilus subtilis PCI 219. To be noted: Bacillus subtilis, PCI219.
Assay [9] relates to P. cepacia GIFU 518. To be noted: Burkholderia cepacia, GIFU518; 10^6 cells/ml; Gram -; read-out: MIC.
Assay [10] has as its system Salmonella enteritidis IID 604. As to conditions: Salmonella enterica; 10^6 cells/ml; Gram -; read-out: MIC.
For assay [11], the system named is B. fragilis 0558. As to conditions: Bacteroides fragilis, 10^6 cells/ml, Gram -, read-out: MIC.

With `CCOc1c(N2CCNCC2)c(F)cc2c(=O)c(C(=O)O)cn(C3CC3)c12` [Exp. 18, 1-cyclopropyl-6-fluoro-1,4-dihydro-8-ethoxy-4-oxo-7-(1-piperazinyl)-3-quinolinecarboxylic acid], the minimum inhibitory concentration (MIC) was 0.1 µg/mL (≈ 0.266 µM) in [1]; 25 µg/mL (≈ 66.6 µM) in [2]; 12.5 µg/mL (≈ 33.3 µM) in [3]; 0.2 µg/mL (≈ 0.533 µM) in [4]; 0.39 µg/mL (≈ 1.04 µM) in assay [5]; 0.2 µg/mL (≈ 0.533 µM) in assay [6]. The MIC in assay [7] was no more than 0.05 µg/mL; in assay [8], no more than 0.05 µg/mL; in assay [9], 3.13 µg/mL (≈ 8.34 µM); in assay [10], 0.1 µg/mL (≈ 0.266 µM); in assay [11] it was 12.5 µg/mL (≈ 33.3 µM).

For orientation: MIC means the lowest concentration that inhibits growth of the organism.
